Drawing on ChEMBL document CHEMBL4270577, “Synthesis, anticancer activity and molecular modeling studies of 1,2,4-triazole derivatives as EGFR inhibitors” (Eur J Med Chem, 2018), this text covers IC50 for one compound.

Common to all, as to assay type: functional, cell-based
One assay has as its system PANC-1. The assay can be described thus: Antiproliferative activity against human PANC1 cells after 48 hrs by propidium iodide staining-based fluorometric analysis. To be noted: PANC-1, 48 h.
A further assay relates to MIA PaCa-2. The assay can be described thus: Antiproliferative activity against human MIAPaCa2 cells after 48 hrs by propidium iodide staining-based fluorometric analysis. The conditions noted are these: MIA PaCa-2, 48 h.
The next assay relates to HT-29. Briefly: Antiproliferative activity against human HT-29 cells after 48 hrs by propidium iodide staining-based fluorometric analysis. To be noted: HT-29, 48 h.
In a further assay the test system is NCI-H460. The assay can be described thus: Antiproliferative activity against human H460 cells after 48 hrs by propidium iodide staining-based fluorometric analysis. To be noted: NCI-H460, 48 h.

As usually defined, the IC50 is the midpoint of a concentration-inhibition curve.

The structures appear in SMILES notation.

`CC(=O)c1ccc(NC(=O)Cn2nc(-c3ccccc3)nc2N)cc1`: the IC50 with PANC-1 came out at 9.5 µM; with MIA PaCa-2 it was 8.5 µM; with HT-29 it was 8.4 µM; with NCI-H460 it was 9.8 µM.
